Measurements from patent EP0097439A2, “A crystalline prostaglandin salt” (THE UPJOHN COMPANY, priority 1982, dated 1984).
Counter-ions that a name gives are not always drawn. Like-named read-outs stand apart in the source and are kept apart here.

Legend:
[1] = Water content / hygroscopicity of the crystalline solid; format: physicochemical
Description: All solvents used in this example are degassed with nitrogen using a gas dispersion tube for 15 min prior to use. To a stirred solution of 4.82 g of 9-deoxo-16,16-dimethyl-9-methylene-PGE2 in 50 ml of methanol is added a solution of 880 mg of potassium carbonate in 15 ml of water. The reaction mixture is then allowed to stand for 5 min at 25°C and then concentrated under reduced pressure at 35°C. Eight 250 ml portions of anhydrous tetrahydrofuran are added and evaporated to insure complete removal of water. The residue, a pale yellow foam, is dissolved in 15 ml of methanol and added dropwise under a nitrogen atmosphere with vigorous stirring to one liter of diethyl ether. The initial cloudy suspension yields a gum-like residue on the walls of the reaction vessel after about 1 hr. Continued vigorous stirring for 24 hr leads to gradual crystallization and resuspension as a uniform, easily filterable solid. This suspension is then filtered using a medium porosity sintered glass funnel. The solids are washed with 15 ml of fresh diethyl ether at 25°C. After drying for 2 hr in a vacuum desiccator at 25°C, a colorless free-flowing crystalline solid, 5.13 g, is obtained, pure crystalline 9-deoxo-16,16-dimethyl-9-methylene-PGE2 potassium salt. IR absorptions (cm^-1) are observed at 3134, 1652, 1572, 1467, 1392, 1337, 1364, 1344, 1102, 1024, 974, and 883. […]

[2] = Plasma levels of 9-deoxo-16,16-dimethyl-9-methylene-PGE2 by radioimmunoassay after insertion of a suppository; format: in vivo, Rhesus monkeys (Macaca mulatta); conditions: rhesus monkey, plasma, 30 mg, plasma, read-out: Drug Levels
Excerpt: A. Midtrimester pregnant female Rhesus monkeys (Macaca mulatta) are used. (The first day of menstrual bleeding is designated Day 1 of the menstrual cycle; the first day a female is placed with a male for breeding is designated Day 1 of pregnancy. Pregnancy is confirmed by abdominal palpation of the uterus.)
Blood samples are collected into heparinized syringes at specified times following insertion of a suppository in pregnant or non- pregnant monkeys. Plasma is extracted and assayed for 9-deoxo-16,16-dimethyl-9-methylene-PGE2 content by radioimmunoassay.
C. Six suppository lots are prepared (4), each containing 9- deoxo-16,16-dimethyl-9-methylene-PGE2 or its crystalline potassium salt (Examples 1 and 2). Two lots are made with Witepsol H15 alone as the suppository base, two with Witepsol HIS wax plus 2% colloidal silicon dioxide (CSD) and two with Witepsol H15 plus 2% CSD plus 10% triacetin. Suppositories are prepared using Witepsol H15 suppository wax. Free acid or potassium salt is dispersed in the hot wax using a homogenizer. Two percent colloidal silicon dioxide (CSD) is mixed in by further homogenization. In the third formulation, triacetin (10%) is added before the CSD and then homogenized for one minute. Suppositories are formed in 800 mg aluminum molds and are stored at 4°C until used.
D. The plasma levels of 9-deoxo-16,16-d1methy1-9-methy1ene-PGE2 in monkeys treated with 6 formulations containing either 9-deoxo-16,16-dimethyl-9-methylene-PGE2 free acid or potassium salt are shown in Tables 1-6. In general, higher blood levels are measured in pregnant Rhesus monkeys than in non-pregnant monkeys.

[3] = Monkey #4, 30 mg Potassium Salt in H15 Suppositories
[4] = Monkey #5, 30 mg Potassium Salt in H15 Suppositories
[5] = Monkey #6 (pregnant animal with uterine recording), 30 mg Potassium Salt in H15 Suppositories
[6] = Monkey #10, 30 mg Potassium Salt in H15 Plus 2% CSD Suppositories
[7] = Monkey #11, 30 mg Potassium Salt in H15 Plus 2% CSD Suppositories
[8] = Monkey #12 (pregnant animal with uterine recording), 30 mg Potassium Salt in H15 Plus 2% CSD Suppositories
[9] = Monkey #16, 30 mg Potassium Salt in H15 Plus 2% CSD + 10% Triacetin Suppositories
[10] = Monkey #17, 30 mg Potassium Salt in H15 Plus 2% CSD + 10% Triacetin Suppositories
[11] = Monkey #18, 30 mg Potassium Salt in H15 Plus 2% CSD + 10% Triacetin Suppositories

Water content ([1]; after 5 days at ambient humidity): 0.16%
hygroscopicity ([1]; crystalline solid): non-hygroscopic
concentration at 0.25 h [2, 3]: 128 ng/mL
concentration at 0.5 h ([2]; Monkey #4, 0.5 Hours, 30 mg Potassium Salt in H15 Suppositories): 3.72 ng/mL
concentration at 1.5 h [2, 3]: 0.41 ng/mL
concentration at 2 h [2, 3]: 0.86 ng/mL
concentration at 3 h [2, 3]: 7.52 ng/mL
concentration at 4 h [2, 3]: 8.39 ng/mL
concentration at 6 h [2, 3]: 17.9 ng/mL
concentration at 24 h [2, 3]: 21.7 ng/mL
concentration at 0.25 h [2, 4]: 10.9 ng/mL
concentration at 1 h [2, 4]: 1.42 ng/mL
concentration at 1.5 h [2, 4]: 5.91 ng/mL
concentration at 2 h [2, 4]: 11.5 ng/mL
concentration at 3 h [2, 4]: 14.2 ng/mL
concentration at 4 h [2, 4]: 22.9 ng/mL
concentration at 6 h [2, 4]: 25 ng/mL
concentration at 24 h [2, 4]: 16.2 ng/mL
concentration at 0.25 h [2, 5]: 76.6 ng/mL
concentration at 0.5 h ([2]; Monkey #6 (pregnant animal with uterine recording), 0.5 Hours, 30 mg Potassium Salt in H15 Suppositories): 68.4 ng/mL
concentration at 1 h [2, 5]: 29.6 ng/mL
concentration at 1.5 h [2, 5]: 77.3 ng/mL
concentration at 2 h [2, 5]: 28.4 ng/mL
concentration at 3 h [2, 5]: 41.7 ng/mL
concentration at 4 h [2, 5]: 42.8 ng/mL
concentration at 6 h [2, 5]: 20.2 ng/mL
concentration at 24 h [2, 5]: 7.77 ng/mL
concentration at 0.25 h [2, 6]: 20.4 ng/mL
concentration at 1 h [2, 6]: 1.5 ng/mL
concentration at 1.5 h [2, 6]: 1.7 ng/mL
concentration at 2 h [2, 6]: 3.57 ng/mL
concentration at 3 h [2, 6]: 12.4 ng/mL
concentration at 4 h [2, 6]: 20.7 ng/mL
concentration at 6 h [2, 6]: 53.8 ng/mL
concentration at 24 h [2, 6]: 16 ng/mL
concentration at 0.5 h ([2]; Monkey #10, .5 Hours, 30 mg Potassium Salt in H15 Plus 2% CSD Suppositories): 2.39 ng/mL
concentration at 0.25 h [2, 7]: 19.8 ng/mL
concentration at 1 h [2, 7]: 6.61 ng/mL
concentration at 1.5 h [2, 7]: 8.13 ng/mL
concentration at 2 h [2, 7]: 9.8 ng/mL
concentration at 3 h [2, 7]: 9.48 ng/mL
concentration at 4 h [2, 7]: 18.7 ng/mL
concentration at 6 h [2, 7]: 28.7 ng/mL
concentration at 24 h [2, 7]: 23.4 ng/mL
concentration at 0.5 h ([2]; Monkey #11, .5 Hours, 30 mg Potassium Salt in H15 Plus 2% CSD Suppositories): 14 ng/mL
concentration at 0.25 h [2, 8]: 104 ng/mL
concentration at 1 h [2, 8]: 40.9 ng/mL
concentration at 1.5 h [2, 8]: 91.1 ng/mL
concentration at 2 h [2, 8]: 66.5 ng/mL
concentration at 3 h [2, 8]: 51.5 ng/mL
concentration at 4 h [2, 8]: 36.1 ng/mL
concentration at 6 h [2, 8]: 22.5 ng/mL
concentration at 24 h [2, 8]: 6.04 ng/mL
concentration at 0.5 h ([2]; Monkey #12 (pregnant animal with uterine recording), .5 Hours, 30 mg Potassium Salt in H15 Plus 2% CSD Suppositories): 55.7 ng/mL
concentration at 0.25 h [2, 9]: 7.45 ng/mL
concentration at 0.5 h ([2]; Monkey #16, 0.5 Hours, 30 mg Potassium Salt in H15 Plus 2% CSD + 10% Triacetin Suppositories): 7 ng/mL
concentration at 1 h [2, 9]: 12.6 ng/mL
concentration at 1.5 h [2, 9]: 19.9 ng/mL
concentration at 2 h [2, 9]: 40.2 ng/mL
concentration at 3 h [2, 9]: 45.5 ng/mL
concentration at 4 h [2, 9]: 31.4 ng/mL
concentration at 6 h [2, 9]: 34.5 ng/mL
concentration at 24 h [2, 9]: 14.2 ng/mL
concentration at 0.25 h [2, 10]: 7.98 ng/mL
concentration at 0.5 h ([2]; Monkey #17, 0.5 Hours, 30 mg Potassium Salt in H15 Plus 2% CSD + 10% Triacetin Suppositories): 2.15 ng/mL
concentration at 1 h [2, 10]: 1.27 ng/mL
concentration at 1.5 h [2, 10]: 1.86 ng/mL
concentration at 2 h [2, 10]: 1.75 ng/mL
concentration at 3 h [2, 10]: 20.1 ng/mL
concentration at 4 h [2, 10]: 3.13 ng/mL
concentration at 6 h [2, 10]: 6.97 ng/mL
concentration at 24 h [2, 10]: 21.9 ng/mL
concentration at 0.25 h [2, 11]: 56.8 ng/mL
concentration at 0.5 h ([2]; Monkey #18, 0.5 Hours, 30 mg Potassium Salt in H15 Plus 2% CSD + 10% Triacetin Suppositories): 207 ng/mL
concentration at 1 h [2, 11]: 64.4 ng/mL
concentration at 1.5 h [2, 11]: 38.3 ng/mL
concentration at 2 h [2, 11]: 87.2 ng/mL
concentration at 3 h [2, 11]: 47.8 ng/mL
concentration at 4 h [2, 11]: 35.5 ng/mL
concentration at 6 h [2, 11]: 33.9 ng/mL
concentration at 24 h [2, 11]: 8.31 ng/mL
SMILES: C=C1C[C@@H](O)[C@H](/C=C/[C@@H](O)C(C)(C)CCCC)[C@H]1C/C=C\CCCC(=O)O [Potassium Salt, 9-deoxo-16,16-dimethyl-9-methylene-PGE2 potassium salt]
